Results from PubChem BioAssay AID2060895 (Molecular Pharmacology Branch, DTP, NCI, 2025).

System: PDC 899932-113-R3-J6 complex spheroid viability
Experiment: Anticancer human tumor 899932-113-R3-J6-PDC patient-derived melanoma cell line growth inhibition [RAS]
Settings: for IC50: curve of first compound; for viability, T/C: stronger effect = lower value
Outline: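 Tumour cells grown as complex spheroids with HUVEC endothelial cells and mesenchymal stem cells, treated with RAS pathway inhibitor combinations. Each agent spans half-log steps from near clinical Cmax, or 10 microM where Cmax is unknown.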

[1] = second compound 0.000949 µM, first compound 0.0316 µM
[2] = second compound 0.000949 µM, first compound 0.1 µM
[3] = second compound 0.000949 µM, first compound 0.316 µM
[4] = second compound 0.000949 µM, first compound 1 µM
[5] = second compound 0.003 µM, first compound 0.0316 µM
[6] = second compound 0.003 µM, first compound 0.1 µM
[7] = second compound 0.003 µM, first compound 0.316 µM
[8] = second compound 0.003 µM, first compound 1 µM
[9] = second compound 0.00949 µM, first compound 0.0316 µM
[10] = second compound 0.00949 µM, first compound 0.1 µM
[11] = second compound 0.00949 µM, first compound 0.316 µM
[12] = second compound 0.00949 µM, first compound 1 µM
[13] = second compound 0.03 µM, first compound 0.0316 µM
[14] = second compound 0.03 µM, first compound 0.1 µM
[15] = second compound 0.03 µM, first compound 0.316 µM
[16] = second compound 0.03 µM, first compound 1 µM
[17] = second compound 0.0949 µM, first compound 0.0316 µM
[18] = second compound 0.0949 µM, first compound 0.1 µM
[19] = second compound 0.0949 µM, first compound 0.316 µM
[20] = second compound 0.0949 µM, first compound 1 µM
[21] = second compound 0.3 µM, first compound 0.0316 µM
[22] = second compound 0.3 µM, first compound 0.1 µM
[23] = second compound 0.3 µM, first compound 0.316 µM
[24] = second compound 0.3 µM, first compound 1 µM
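For viability, T/C in this document: spheroids exposed to agents for seven days before readout; 100% = DMSO vehicle control wells.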

With `CC(C)n1nc(-c2ccc3oc(N)nc3c2)c2c(N)ncnc21` + C#Cc1c(F)ccc2cc(O)cc(-c3ncc4c(N5CC6CCC(C5)N6)nc(OCC56CCCN5CC(F)C6)nc4c3F)c12 the IC50 (second compound 0.0316 µM) was 90.3 nM, the IC50 (second compound 0.1 µM) was greater than 100 nM and the IC50 (second compound 0.316 µM) was greater than 100 nM. The IC50 (second compound 1 µM) was greater than 100 nM, the IC50 (second compound 3.16 µM) was greater than 100 nM and the IC50 (second compound 10 µM) was greater than 100 nM. For the same compound, the viability, T/C (second compound 0.0316 µM, first compound 0.000316 µM) was 104%, the viability, T/C (second compound 0.0316 µM, first compound 0.001 µM) was 100% and the viability, T/C (second compound 0.0316 µM, first compound 0.00316 µM) was 105%. It also gave a viability, T/C (second compound 0.0316 µM, first compound 0.01 µM) of 91.8%, a viability, T/C (second compound 0.0316 µM, first compound 0.0316 µM) of 68.2% and a viability, T/C (second compound 0.0316 µM, first compound 0.1 µM) of 48.1%. For the same compound, the viability, T/C (second compound 0.1 µM, first compound 0.000316 µM) was 114%, the viability, T/C (second compound 0.1 µM, first compound 0.001 µM) was 105% and the viability, T/C (second compound 0.1 µM, first compound 0.00316 µM) was 95.7%. It also gave a viability, T/C (second compound 0.1 µM, first compound 0.01 µM) of 100%, a viability, T/C (second compound 0.1 µM, first compound 0.0316 µM) of 73.4% and a viability, T/C (second compound 0.1 µM, first compound 0.1 µM) of 52.5%. It also gave a viability, T/C (second compound 0.316 µM, first compound 0.000316 µM) of 103%, a viability, T/C (second compound 0.316 µM, first compound 0.001 µM) of 97.6% and a viability, T/C (second compound 0.316 µM, first compound 0.00316 µM) of 115%. For the same compound, the viability, T/C (second compound 0.316 µM, first compound 0.01 µM) was 100%, the viability, T/C (second compound 0.316 µM, first compound 0.0316 µM) was 76.4% and the viability, T/C (second compound 0.316 µM, first compound 0.1 µM) was 50%. For the same compound, the viability, T/C (second compound 1 µM, first compound 0.000316 µM) was 104%, the viability, T/C (second compound 1 µM, first compound 0.001 µM) was 104% and the viability, T/C (second compound 1 µM, first compound 0.00316 µM) was 110%. For the same compound, the viability, T/C (second compound 1 µM, first compound 0.01 µM) was 96.5%, the viability, T/C (second compound 1 µM, first compound 0.0316 µM) was 75% and the viability, T/C (second compound 1 µM, first compound 0.1 µM) was 52.4%. It also gave a viability, T/C (second compound 3.16 µM, first compound 0.000316 µM) of 116%, a viability, T/C (second compound 3.16 µM, first compound 0.001 µM) of 128% and a viability, T/C (second compound 3.16 µM, first compound 0.00316 µM) of 118%. It also gave a viability, T/C (second compound 3.16 µM, first compound 0.01 µM) of 112%, a viability, T/C (second compound 3.16 µM, first compound 0.0316 µM) of 85.9% and a viability, T/C (second compound 3.16 µM, first compound 0.1 µM) of 51.6%. For the same compound, the viability, T/C (second compound 10 µM, first compound 0.000316 µM) was 115%, the viability, T/C (second compound 10 µM, first compound 0.001 µM) was 110% and the viability, T/C (second compound 10 µM, first compound 0.00316 µM) was 123%. For the same compound, the viability, T/C (second compound 10 µM, first compound 0.01 µM) was 115%, the viability, T/C (second compound 10 µM, first compound 0.0316 µM) was 85.8% and the viability, T/C (second compound 10 µM, first compound 0.1 µM) was 50.7%.

For `NC1c2ccccc2OC12CCN(c1cnc3c(N4CCCc5ncccc54)n[nH]c3n1)CC2` (stereo unspecified) + CCn1c(-c2cccnc2C(C)OC)c2c3cc(ccc31)N1CCOC(CC(NC(=O)C(C(C)C)N(C)C(=O)C3(F)CCN(C(=O)C#CC(C)(C)N(C)C)CC3)C(=O)N3CCCC(N3)C(=O)OCC(C)(C)C2)C1, the IC50 (second compound 0.000949 µM) was greater than 10000 nM, the IC50 (second compound 0.003 µM) was greater than 10000 nM and the IC50 (second compound 0.00949 µM) was greater than 10000 nM. For the same compound, the IC50 (second compound 0.03 µM) was greater than 10000 nM, the IC50 (second compound 0.0949 µM) was greater than 10000 nM and the IC50 (second compound 0.3 µM) was greater than 10000 nM. The viability, T/C [1] was 113%, the viability, T/C [2] was 102% and the viability, T/C [3] was 112%. The viability, T/C [4] was 120%, the viability, T/C (second compound 0.000949 µM, first compound 3.16 µM) was 114% and the viability, T/C (second compound 0.000949 µM, first compound 10 µM) was 101%. For the same compound, the viability, T/C [5] was 113%, the viability, T/C [6] was 112% and the viability, T/C [7] was 111%. It also gave a viability, T/C [8] of 120%, a viability, T/C (second compound 0.003 µM, first compound 3.16 µM) of 111% and a viability, T/C (second compound 0.003 µM, first compound 10 µM) of 110%. It also gave a viability, T/C [9] of 112%, a viability, T/C [10] of 112% and a viability, T/C [11] of 110%. For the same compound, the viability, T/C [12] was 129%, the viability, T/C (second compound 0.00949 µM, first compound 3.16 µM) was 120% and the viability, T/C (second compound 0.00949 µM, first compound 10 µM) was 109%. For the same compound, the viability, T/C [13] was 112%, the viability, T/C [14] was 116% and the viability, T/C [15] was 105%. The viability, T/C [16] was 117%, the viability, T/C (second compound 0.03 µM, first compound 3.16 µM) was 112% and the viability, T/C (second compound 0.03 µM, first compound 10 µM) was 106%. For the same compound, the viability, T/C [17] was 100%, the viability, T/C [18] was 102% and the viability, T/C [19] was 94.4%. For the same compound, the viability, T/C [20] was 113%, the viability, T/C (second compound 0.0949 µM, first compound 3.16 µM) was 108% and the viability, T/C (second compound 0.0949 µM, first compound 10 µM) was 98.5%. The viability, T/C [21] was 97.7%, the viability, T/C [22] was 85.1% and the viability, T/C [23] was 95.7%. It also gave a viability, T/C [24] of 96.8%, a viability, T/C (second compound 0.3 µM, first compound 3.16 µM) of 92.6% and a viability, T/C (second compound 0.3 µM, first compound 10 µM) of 85.7%.

Compound `C=CC(=O)Nc1cc(Nc2nccc(-c3cn(C)c4ccccc34)n2)c(OC)cc1N(C)CCN(C)C` + CCn1c(-c2cc(N3CCN(C)CC3)cnc2C(C)OC)c2c3cc(ccc31)-c1csc(n1)CC(NC(=O)C1CC1C)C(=O)N1CCCC(N1)C(=O)OCC(C)(C)C2 has an IC50 (second compound 0.000949 µM) greater than 1000 nM, an IC50 (second compound 0.003 µM) of less than 3.16 nM and an IC50 (second compound 0.00949 µM) of less than 3.16 nM. For the same compound, the IC50 (second compound 0.03 µM) was less than 3.16 nM, the IC50 (second compound 0.0949 µM) was less than 3.16 nM and the IC50 (second compound 0.3 µM) was less than 3.16 nM. The viability, T/C (second compound 0.000949 µM, first compound 0.00316 µM) was 69.1%, the viability, T/C (second compound 0.000949 µM, first compound 0.01 µM) was 69.2% and the viability, T/C [1] was 67%. For the same compound, the viability, T/C [2] was 79.7%, the viability, T/C [3] was 76.7% and the viability, T/C [4] was 64.3%. For the same compound, the viability, T/C (second compound 0.003 µM, first compound 0.00316 µM) was 32.5%, the viability, T/C (second compound 0.003 µM, first compound 0.01 µM) was 28.4% and the viability, T/C [5] was 28.7%. The viability, T/C [6] was 33.8%, the viability, T/C [7] was 31.5% and the viability, T/C [8] was 16.9%. It also gave a viability, T/C (second compound 0.00949 µM, first compound 0.00316 µM) of 4.3%, a viability, T/C (second compound 0.00949 µM, first compound 0.01 µM) of 3.34% and a viability, T/C [9] of 3.46%. The viability, T/C [10] was 3.41%, the viability, T/C [11] was 2.9% and the viability, T/C [12] was 2.5%. It also gave a viability, T/C (second compound 0.03 µM, first compound 0.00316 µM) of 2.61%, a viability, T/C (second compound 0.03 µM, first compound 0.01 µM) of 2.72% and a viability, T/C [13] of 2.62%. For the same compound, the viability, T/C [14] was 2.55%, the viability, T/C [15] was 2.41% and the viability, T/C [16] was 1.43%. For the same compound, the viability, T/C (second compound 0.0949 µM, first compound 0.00316 µM) was 2.26%, the viability, T/C (second compound 0.0949 µM, first compound 0.01 µM) was 2.18% and the viability, T/C [17] was 2.56%. It also gave a viability, T/C [18] of 2.02%, a viability, T/C [19] of 1.87% and a viability, T/C [20] of 1.11%. It also gave a viability, T/C (second compound 0.3 µM, first compound 0.00316 µM) of 2.04%, a viability, T/C (second compound 0.3 µM, first compound 0.01 µM) of 2.23% and a viability, T/C [21] of 1.88%. The viability, T/C [22] was 1.96%, the viability, T/C [23] was 1.49% and the viability, T/C [24] was 1.11%.
